ChEMBL document CHEMBL1275564, “Minimal pharmacokinetic interaction between the human immunodeficiency virus nonnucleoside reverse transcriptase inhibitor etravirine and the integrase inhibitor raltegravir in healthy subjects” (Antimicrob Agents Chemother, 2008)

Columns and labels:
Assay type in all cases: ADME, organism-based
[1] = Cmax in healthy human plasma at 200 mg, po twice a day for 8 days by reverse-phase HPLC-MS method; set-up: dose 200 mg, route oral
Homo sapiens [2] = experiment: AUC (0 to 12 hrs) in healthy human plasma at 200 mg, po twice a day for 8 days by reverse-phase HPLC-MS method; set-up: time < 12 hr, dose 200 mg, route oral; details: in vivo
[3] = Trough drug concentration at 12 hrs in healthy human plasma at 200 mg, po twice a day for 8 days by reverse-phase HPLC-MS method; details: read-out: Cmin
[4] = Tmax in healthy human plasma at 200 mg, po twice a day for 4 days coadministered with 400 mg of raltegravir, po twice a day for 4 days by reverse-phase HPLC-MS method
[5] = Tmax in healthy human plasma at 200 mg, po twice a day for 8 days by reverse-phase HPLC-MS method
[6] = Cmax in healthy human plasma at 200 mg, po twice a day for 4 days coadministered with 400 mg of raltegravir, po twice a day for 4 days by reverse-phase HPLC-MS method; set-up: dose 200 mg, route oral
Homo sapiens [7] = experiment: AUC (0 to 12 hrs) in healthy human plasma at 200 mg, po twice a day for 4 days coadministered with 400 mg of raltegravir, po twice a day for 4 days by reverse-phase HPLC-MS method; set-up: time < 12 hr, dose 200 mg, route oral; details: in vivo
[8] = Trough drug concentration at 12 hrs in healthy human plasma at 200 mg, po twice a day for 4 days coadministered with 400 mg of raltegravir, po twice a day for 4 days by reverse-phase HPLC-MS method; details: read-out: Cmin
[9] = Trough drug concentration at 12 hrs in healthy human plasma at 400 mg, po twice a day for 4 days by reverse-phase HPLC-MS method; details: read-out: Cmin
[10] = Cmax in healthy human plasma at 400 mg, po twice a day for 4 days by reverse-phase HPLC-MS method; set-up: dose 400 mg, route oral
[11] = Cmax in healthy human plasma at 400 mg, po twice a day for 4 days coadministered with 200mg of etravirine twice a day for 4 days by reverse-phase HPLC-MS method; set-up: dose 400 mg, route oral
[12] = Tmax in healthy human plasma at 400 mg, po twice a day for 4 days by reverse-phase HPLC-MS method
[13] = Tmax in healthy human plasma at 400 mg, po twice a day for 4 days coadministered with 200mg of etravirine twice a day for 4 days by reverse-phase HPLC-MS method
[14] = AUC (0 to 12 hrs) in healthy human plasma at 400 mg, po twice a day for 4 days coadministered with 200mg of etravirine twice a day for 4 days by reverse-phase HPLC-MS method; set-up: time < 12 hr, dose 400 mg, route oral
[15] = AUC (0 to 12 hrs) in healthy human plasma at 400 mg, po twice a day for 4 days by reverse-phase HPLC-MS method; set-up: dose 400 mg, time < 12 hr, route oral
[16] = Trough drug concentration at 12 hrs in healthy human plasma at 400 mg, po twice a day for 4 days coadministered with 200mg of etravirine twice a day for 4 days by reverse-phase HPLC-MS method; details: read-out: Cmin

| Cmax [1] [ng/mL] | AUC (Homo sapiens [2]) [ng·h/mL] | concentration at 12 h [3] [ng/mL] | Tmax [4] [h] | Tmax [5] [h] | Cmax [6] [ng/mL] | AUC (Homo sapiens [7]) [ng·h/mL] | concentration at 12 h [8] [ng/mL] | concentration at 12 h [9] [nM] | Cmax [10] [nM] | Cmax [11] [nM] | Tmax [12] [h] | Tmax [13] [h] | AUC at 12 h [14] [µM·h] | AUC at 12 h [15] [µM·h] | concentration at 12 h [16] [nM] | SMILES |
| --- | --- | --- | --- | --- | --- | --- | --- | --- | --- | --- | --- | --- | --- | --- | --- | --- |
| 734 | 6220 | 373 | 4 | 4 | 766 | 6810 | 439 |  |  |  |  |  |  |  |  | Cc1cc(C#N)cc(C)c1Oc1nc(Nc2ccc(C#N)cc2)nc(N)c1Br [ETRAVIRINE] |
|  |  |  |  |  |  |  |  | 216 | 1740 | 1540 | 1.5 | 3 | 6.28 | 7.01 | 142 | Cc1nnc(C(=O)NC(C)(C)c2nc(C(=O)NCc3ccc(F)cc3)c(O)c(=O)n2C)o1 [RALTEGRAVIR] |
